Experimental findings from ChEMBL document CHEMBL3132769, “Fragment growing to retain or alter the selectivity of anchored kinase hinge-binding fragments” (Medchemcomm, 2014) are described below.

Test [1] addresses Rho-associated protein kinase 2 (Homo sapiens) (UniProt O75116). Nature of the test: Inhibition of human ROCK2 catalytic domain expressed in baculovirus assessed as substrate phosphorylation using fluorescence-labelled peptides as substrate at 8 uM after 90 mins by microfluidic peptide phosphorylation assay.
In test [2] the target is T1, Calcium/calmodulin-dependent protein kinase type IV (Homo sapiens) (UniProt Q16566).
T1 sequence (whole entry): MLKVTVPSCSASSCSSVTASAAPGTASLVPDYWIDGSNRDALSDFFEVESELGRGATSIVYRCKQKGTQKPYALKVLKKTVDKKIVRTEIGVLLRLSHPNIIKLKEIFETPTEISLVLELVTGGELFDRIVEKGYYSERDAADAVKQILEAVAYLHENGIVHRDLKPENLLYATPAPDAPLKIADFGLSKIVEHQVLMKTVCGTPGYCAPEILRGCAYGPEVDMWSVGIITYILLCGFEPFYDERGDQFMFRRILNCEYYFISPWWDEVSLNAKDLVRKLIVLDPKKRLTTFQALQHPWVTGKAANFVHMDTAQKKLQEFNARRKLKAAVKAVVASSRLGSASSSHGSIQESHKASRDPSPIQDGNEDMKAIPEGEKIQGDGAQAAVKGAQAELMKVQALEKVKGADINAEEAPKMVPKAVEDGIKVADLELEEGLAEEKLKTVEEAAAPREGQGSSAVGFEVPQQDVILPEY
The test is described as follows: Inhibition of human full length CAMK4 expressed in baculovirus assessed as substrate phosphorylation using fluorescence-labelled peptides as substrate at 8 uM after 90 mins by microfluidic peptide phosphorylation assay.

Test [3] has as its target Protein kinase C theta type (Homo sapiens) (UniProt Q04759). Nature of the test: Inhibition of human truncated PKC theta expressed in baculovirus assessed as substrate phosphorylation using fluorescence-labelled peptides as substrate at 420 uM after 90 mins by microfluidic peptide phosphorylation assay.
The target of test [4] is Receptor-type tyrosine-protein kinase FLT3 (Homo sapiens) (UniProt P36888). Nature of the test: Inhibition of human FLT3 catalytic domain expressed in baculovirus assessed as substrate phosphorylation using fluorescence-labelled peptides as substrate at 0.1 uM after 90 mins by microfluidic peptide phosphorylation assay.
The target of test [5] is Platelet-derived growth factor receptor alpha (Homo sapiens) (UniProt P16234). Nature of the test: Inhibition of human PDGFR alpha catalytic domain expressed in baculovirus assessed as substrate phosphorylation using fluorescence-labelled peptides as substrate at 0.1 uM after 90 mins by microfluidic peptide phosphorylation assay.
For test [6], the target named is Tyrosine-protein kinase HCK (Homo sapiens) (UniProt P08631). Nature of the test: Inhibition of human HCK catalytic domain expressed in baculovirus assessed as substrate phosphorylation using fluorescence-labelled peptides as substrate at 70 uM after 90 mins by microfluidic peptide phosphorylation assay.
Test [7] concerns the target Mitogen-activated protein kinase 14 (Homo sapiens) (UniProt Q16539). The test is described as follows: Inhibition of human truncated p38 alpha expressed in Escherichia coli cell assessed as substrate phosphorylation using fluorescence-labelled peptides as substrate at 2 uM after 90 mins by microfluidic peptide phosphorylation assay.
Test [8] addresses T2, Aurora kinase C (Homo sapiens) (UniProt Q9UQB9).
T2 sequence (whole entry): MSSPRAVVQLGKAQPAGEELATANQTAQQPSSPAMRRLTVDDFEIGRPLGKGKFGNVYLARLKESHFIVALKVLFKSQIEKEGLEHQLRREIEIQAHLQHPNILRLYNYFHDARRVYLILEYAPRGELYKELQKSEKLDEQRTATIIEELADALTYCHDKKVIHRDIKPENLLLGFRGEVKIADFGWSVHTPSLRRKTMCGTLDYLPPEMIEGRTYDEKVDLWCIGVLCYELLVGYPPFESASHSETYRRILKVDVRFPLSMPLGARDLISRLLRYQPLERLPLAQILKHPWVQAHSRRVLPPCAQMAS
Nature of the test: Inhibition of human full length AurC expressed in baculovirus assessed as substrate phosphorylation using fluorescence-labelled peptides as substrate at 2 uM after 90 mins by microfluidic peptide phosphorylation assay.

The target in test [9] is Insulin receptor (Homo sapiens) (UniProt P06213). The test is described as follows: Inhibition of human INSR catalytic domain expressed in baculovirus assessed as substrate phosphorylation using fluorescence-labelled peptides as substrate at 2 uM after 90 mins by microfluidic peptide phosphorylation assay.
For test [10], the target named is MAP kinase-activated protein kinase 2 (Homo sapiens) (UniProt P49137). The test is described as follows: Inhibition of human full length MAPKAPK2 expressed in baculovirus assessed as substrate phosphorylation using fluorescence-labelled peptides as substrate at 95 uM after 90 mins by microfluidic peptide phosphorylation assay.
Test [11] deals with T3, Serine/threonine-protein kinase Nek2 (Homo sapiens) (UniProt P51955).
T3 sequence (whole entry): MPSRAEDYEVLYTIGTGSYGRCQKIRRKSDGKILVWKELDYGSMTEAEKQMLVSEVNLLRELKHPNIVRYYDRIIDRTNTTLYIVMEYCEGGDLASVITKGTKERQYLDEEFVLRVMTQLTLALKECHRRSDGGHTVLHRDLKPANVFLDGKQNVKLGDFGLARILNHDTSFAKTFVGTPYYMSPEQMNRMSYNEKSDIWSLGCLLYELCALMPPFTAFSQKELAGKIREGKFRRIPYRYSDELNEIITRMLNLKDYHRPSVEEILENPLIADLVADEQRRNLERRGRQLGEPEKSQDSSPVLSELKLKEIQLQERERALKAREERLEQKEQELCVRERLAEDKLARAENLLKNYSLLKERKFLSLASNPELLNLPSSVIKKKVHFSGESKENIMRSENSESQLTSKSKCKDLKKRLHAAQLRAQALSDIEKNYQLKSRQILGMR
The test is described as follows: Inhibition of human full length NEK2 expressed in baculovirus assessed as substrate phosphorylation using fluorescence-labelled peptides as substrate at 1000 uM after 90 mins by microfluidic peptide phosphorylation assay.

The target of test [12] is Mitogen-activated protein kinase kinase kinase kinase 4 (Homo sapiens) (UniProt O95819). Nature of the test: Inhibition of human HGK catalytic domain expressed in baculovirus assessed as substrate phosphorylation using fluorescence-labelled peptides as substrate at 1000 uM after 90 mins by microfluidic peptide phosphorylation assay.
Chain of Mitogen-activated protein kinase kinase kinase kinase 4 (Homo sapiens) (O95819 2-1239 limits assumed): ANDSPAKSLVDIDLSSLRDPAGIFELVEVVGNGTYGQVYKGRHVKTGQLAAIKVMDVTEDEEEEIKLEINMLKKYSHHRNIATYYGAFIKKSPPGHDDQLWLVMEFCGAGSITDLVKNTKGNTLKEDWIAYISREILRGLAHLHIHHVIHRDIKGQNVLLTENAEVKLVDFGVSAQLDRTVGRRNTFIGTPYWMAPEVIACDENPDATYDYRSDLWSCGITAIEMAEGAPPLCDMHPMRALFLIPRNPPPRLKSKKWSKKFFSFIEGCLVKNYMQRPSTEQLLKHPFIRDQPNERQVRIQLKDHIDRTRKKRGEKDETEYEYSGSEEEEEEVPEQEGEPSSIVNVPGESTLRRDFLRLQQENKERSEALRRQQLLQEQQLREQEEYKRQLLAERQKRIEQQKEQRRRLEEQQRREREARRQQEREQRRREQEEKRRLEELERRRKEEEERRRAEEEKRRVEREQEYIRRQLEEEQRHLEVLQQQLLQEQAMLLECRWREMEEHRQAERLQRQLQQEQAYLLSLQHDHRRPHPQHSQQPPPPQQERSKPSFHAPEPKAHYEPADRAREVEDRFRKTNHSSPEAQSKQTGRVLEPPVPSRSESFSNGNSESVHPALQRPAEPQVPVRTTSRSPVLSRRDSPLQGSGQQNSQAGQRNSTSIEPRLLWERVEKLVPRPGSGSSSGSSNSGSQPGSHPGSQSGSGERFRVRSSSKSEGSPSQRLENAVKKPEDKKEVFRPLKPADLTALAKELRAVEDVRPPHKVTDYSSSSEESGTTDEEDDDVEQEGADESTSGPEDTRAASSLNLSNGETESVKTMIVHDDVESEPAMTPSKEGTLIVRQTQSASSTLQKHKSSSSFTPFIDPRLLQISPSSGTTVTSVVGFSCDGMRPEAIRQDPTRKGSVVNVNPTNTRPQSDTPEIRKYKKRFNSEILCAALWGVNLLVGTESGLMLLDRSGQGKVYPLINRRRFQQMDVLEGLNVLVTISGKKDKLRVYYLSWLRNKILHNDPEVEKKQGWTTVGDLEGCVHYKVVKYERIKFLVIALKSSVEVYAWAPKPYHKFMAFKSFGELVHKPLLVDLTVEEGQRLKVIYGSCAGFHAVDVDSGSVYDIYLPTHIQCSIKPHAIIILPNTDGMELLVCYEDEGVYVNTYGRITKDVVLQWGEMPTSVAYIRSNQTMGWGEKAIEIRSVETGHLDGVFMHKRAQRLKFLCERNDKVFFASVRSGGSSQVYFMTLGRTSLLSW

Chain of Platelet-derived growth factor receptor alpha (Homo sapiens) (P16234 whole entry, the tested form may be a part): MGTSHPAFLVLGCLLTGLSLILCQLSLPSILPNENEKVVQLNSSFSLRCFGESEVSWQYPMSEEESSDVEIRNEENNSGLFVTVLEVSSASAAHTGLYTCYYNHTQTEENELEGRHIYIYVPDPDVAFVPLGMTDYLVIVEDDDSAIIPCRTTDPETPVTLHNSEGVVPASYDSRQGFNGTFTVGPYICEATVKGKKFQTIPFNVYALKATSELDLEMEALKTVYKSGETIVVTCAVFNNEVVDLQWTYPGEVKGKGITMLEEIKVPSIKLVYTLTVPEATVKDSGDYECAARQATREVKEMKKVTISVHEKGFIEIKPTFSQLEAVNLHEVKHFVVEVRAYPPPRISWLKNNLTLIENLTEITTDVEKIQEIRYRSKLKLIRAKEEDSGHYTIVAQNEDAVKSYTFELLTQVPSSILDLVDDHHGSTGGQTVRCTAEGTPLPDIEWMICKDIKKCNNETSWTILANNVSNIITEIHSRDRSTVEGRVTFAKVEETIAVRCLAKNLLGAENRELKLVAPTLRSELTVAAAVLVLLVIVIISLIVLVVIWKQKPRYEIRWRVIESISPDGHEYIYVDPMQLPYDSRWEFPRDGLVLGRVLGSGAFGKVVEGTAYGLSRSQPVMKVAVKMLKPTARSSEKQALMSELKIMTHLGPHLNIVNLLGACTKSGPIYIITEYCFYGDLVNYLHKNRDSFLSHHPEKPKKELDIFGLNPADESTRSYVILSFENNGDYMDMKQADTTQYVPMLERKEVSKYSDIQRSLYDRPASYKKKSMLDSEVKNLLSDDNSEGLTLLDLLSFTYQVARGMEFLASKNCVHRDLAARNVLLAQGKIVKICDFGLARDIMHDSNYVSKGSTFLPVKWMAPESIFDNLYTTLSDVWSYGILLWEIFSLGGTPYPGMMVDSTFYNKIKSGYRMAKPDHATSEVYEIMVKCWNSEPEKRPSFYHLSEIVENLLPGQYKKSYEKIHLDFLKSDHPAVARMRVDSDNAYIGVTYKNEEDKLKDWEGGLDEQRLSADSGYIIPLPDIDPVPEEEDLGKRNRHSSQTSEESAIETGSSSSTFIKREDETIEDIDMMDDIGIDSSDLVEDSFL
Chain of Receptor-type tyrosine-protein kinase FLT3 (Homo sapiens) (P36888 whole entry, the tested form may be a part): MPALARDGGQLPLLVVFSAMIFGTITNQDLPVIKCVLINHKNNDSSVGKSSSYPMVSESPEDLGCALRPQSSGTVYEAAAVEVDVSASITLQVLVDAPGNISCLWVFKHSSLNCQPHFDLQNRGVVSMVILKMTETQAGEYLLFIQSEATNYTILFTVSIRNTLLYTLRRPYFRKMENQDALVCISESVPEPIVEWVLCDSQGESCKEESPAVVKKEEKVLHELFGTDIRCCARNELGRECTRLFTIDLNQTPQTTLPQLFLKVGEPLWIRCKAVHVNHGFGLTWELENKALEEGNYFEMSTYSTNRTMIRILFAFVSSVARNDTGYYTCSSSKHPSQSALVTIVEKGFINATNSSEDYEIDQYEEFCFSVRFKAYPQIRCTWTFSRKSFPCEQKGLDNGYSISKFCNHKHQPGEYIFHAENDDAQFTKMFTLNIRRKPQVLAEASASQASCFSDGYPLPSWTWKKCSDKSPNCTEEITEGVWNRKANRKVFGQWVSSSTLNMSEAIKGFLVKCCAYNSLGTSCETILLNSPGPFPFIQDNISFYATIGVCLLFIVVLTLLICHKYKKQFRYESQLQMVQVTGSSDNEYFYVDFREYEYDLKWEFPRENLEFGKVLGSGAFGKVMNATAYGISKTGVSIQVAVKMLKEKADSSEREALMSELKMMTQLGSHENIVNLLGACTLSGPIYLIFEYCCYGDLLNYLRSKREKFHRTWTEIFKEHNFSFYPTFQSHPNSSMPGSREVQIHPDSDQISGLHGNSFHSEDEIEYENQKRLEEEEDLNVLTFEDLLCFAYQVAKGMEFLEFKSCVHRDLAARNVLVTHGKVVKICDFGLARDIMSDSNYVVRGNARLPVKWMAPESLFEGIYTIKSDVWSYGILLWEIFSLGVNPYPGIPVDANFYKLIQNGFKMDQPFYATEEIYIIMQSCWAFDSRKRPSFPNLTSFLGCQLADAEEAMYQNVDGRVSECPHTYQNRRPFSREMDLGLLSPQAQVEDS
Chain of Protein kinase C theta type (Homo sapiens) (Q04759 whole entry, looked up, the tested form may be a part): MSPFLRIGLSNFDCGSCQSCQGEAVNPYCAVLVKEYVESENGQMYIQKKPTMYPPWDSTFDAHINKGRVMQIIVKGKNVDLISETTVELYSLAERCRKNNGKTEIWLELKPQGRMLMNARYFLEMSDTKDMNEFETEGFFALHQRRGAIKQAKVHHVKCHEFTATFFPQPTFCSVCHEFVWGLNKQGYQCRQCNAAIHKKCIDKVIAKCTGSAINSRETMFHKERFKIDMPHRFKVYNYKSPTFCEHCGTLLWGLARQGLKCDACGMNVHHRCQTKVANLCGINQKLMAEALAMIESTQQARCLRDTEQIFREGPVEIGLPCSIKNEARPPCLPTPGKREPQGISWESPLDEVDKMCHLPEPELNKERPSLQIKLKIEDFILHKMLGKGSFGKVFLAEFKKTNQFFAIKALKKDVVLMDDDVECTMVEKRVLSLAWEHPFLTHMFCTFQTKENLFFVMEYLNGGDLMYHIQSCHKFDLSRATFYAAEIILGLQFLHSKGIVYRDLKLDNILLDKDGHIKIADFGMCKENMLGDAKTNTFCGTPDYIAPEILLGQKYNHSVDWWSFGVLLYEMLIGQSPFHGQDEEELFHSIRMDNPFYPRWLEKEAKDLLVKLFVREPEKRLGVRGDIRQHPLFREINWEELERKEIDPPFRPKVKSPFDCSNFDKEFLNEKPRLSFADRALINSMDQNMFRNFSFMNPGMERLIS
Chain of MAP kinase-activated protein kinase 2 (Homo sapiens) (P49137 whole entry, looked up): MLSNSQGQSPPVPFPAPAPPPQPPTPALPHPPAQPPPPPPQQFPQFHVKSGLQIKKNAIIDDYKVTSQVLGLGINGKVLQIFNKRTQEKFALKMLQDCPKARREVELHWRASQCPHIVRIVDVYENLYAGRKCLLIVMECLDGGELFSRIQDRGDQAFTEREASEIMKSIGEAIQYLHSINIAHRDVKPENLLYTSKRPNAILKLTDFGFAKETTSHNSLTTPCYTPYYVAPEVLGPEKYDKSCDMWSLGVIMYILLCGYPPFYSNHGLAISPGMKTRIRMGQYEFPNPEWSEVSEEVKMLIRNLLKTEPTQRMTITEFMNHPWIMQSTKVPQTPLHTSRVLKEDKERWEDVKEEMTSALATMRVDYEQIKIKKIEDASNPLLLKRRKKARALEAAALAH
Chain of Tyrosine-protein kinase HCK (Homo sapiens) (P08631 2-526 limits assumed): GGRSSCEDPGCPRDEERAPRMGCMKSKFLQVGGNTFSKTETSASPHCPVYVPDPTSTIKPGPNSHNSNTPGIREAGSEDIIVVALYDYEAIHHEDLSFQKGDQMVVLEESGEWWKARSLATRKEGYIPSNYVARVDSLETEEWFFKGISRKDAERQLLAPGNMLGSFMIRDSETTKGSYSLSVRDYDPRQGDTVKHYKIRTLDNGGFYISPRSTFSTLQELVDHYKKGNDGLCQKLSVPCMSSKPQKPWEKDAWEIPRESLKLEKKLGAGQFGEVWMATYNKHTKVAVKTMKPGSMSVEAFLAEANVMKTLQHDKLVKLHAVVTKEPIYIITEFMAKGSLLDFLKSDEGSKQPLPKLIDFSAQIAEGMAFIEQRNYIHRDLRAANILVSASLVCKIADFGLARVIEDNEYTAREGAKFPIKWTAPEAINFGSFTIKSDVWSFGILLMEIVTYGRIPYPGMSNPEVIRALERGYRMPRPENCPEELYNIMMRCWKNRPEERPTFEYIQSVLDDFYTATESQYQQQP

On to `NCC1CCN(c2ncnc3[nH]ccc23)CC1`, for which the results for the inhibition in [1] and in [2] were 89.5% and 43%, respectively.

Turning to `c1nc(N2CCOCC2)c2nc[nH]c2n1`, the inhibition in [3] came to 67.5%.

Regarding `C[C@H](CN(C)C)Oc1nc(Nc2cc3cccc(Cl)c3cn2)cnc1C#N`, the inhibition was 7% in test [4] and 8.5% in [5].

`CNCc1ccc(-c2ncnc3[nH]cnc23)cc1`: the inhibition in test [6] amounted to 18.5%.

Consider `NC1CCN(c2ncnc3[nH]ccc23)CC1`, for which the inhibition in [7] was 2%; in [8] it was 13.5%; in [9], 7.5%.

As to `NCCc1ccc(-c2ncnc3[nH]cnc23)cc1`, the inhibition in [10] worked out at 56.5%.

As for `c1cnc2[nH]ccc2c1`, the values for the inhibition in test [11] and in test [12] were 2.5% and 90%, respectively.
